Columns and labels:
[1] = test system: SAg: Venular endothelial cells, peripheral blood mononuclear cells (TCR ligands); assay: BioMAP SAg system; assay type: cell-based, human
Procedure: (§1) Anti-inflammatory phenotypic profiling was conducted across 12 human primary cell-based systems as part of DiscoverX's BioMAP Diversity Plus program. These systems are designed to model complex human tissue and disease biology of the vasculature, skin, lung, and inflammatory tissues. Quantitative measurements of biomarker activities across this broad panel were used to assess each biochemical's anti-inflammatory activity at four concentrations ([…] and 2.2, 6.7 and 20 μM). […] Protein-based biomarkers from activated cell systems were measured and compared with controls. Biomarker activities were annotated when 2 or more consecutive concentrations change in the same directions relative to vehicle controls, were outside of the significance envelope and had at least one concentration with an effect size>20% (log 10 ratio)>0.1.
In this system, human primary peripheral blood mononuclear cells and human umbilical vein endothelial cells were stimulated with T-cell receptor ligands and incubated with the test agent, drug control, or vehicle control for 24 hours. A negative, non-stimulated system was also included. […] This antiproliferative activity was lost at higher concentrations (20 μM). In this system, T cell proliferation is considered a critical event driving an inflammatory response.
(§2) The Diversity PLUS panel allows test agent characterization in an unbiased way across a broad set of systems modeling various human disease states. These systems are designed to model complex human tissue and disease biology of the vasculature, skin, lung, and inflammatory tissues. Quantitative measurements of 148 biomarker activities across this broad panel, along with comparative analysis of biological activities from known bioactive agents, were used to predict and compare the efficacy and function of each selected compound at selected concentrations (6.7 and/or 20 μM). […]
(§3) Each test agent generates a signature BioMAP profile that is created from the changes in protein biomarker readouts within individual system environments. Biomarker readouts (7-17 per system) are selected for therapeutic and biological relevance, are predictive for disease outcomes or specific drug effects and are validated using agents with known mechanism of action (MoA). Each readout is measured quantitatively by immune-based methods that detect protein (e.g., ELISA) or functional assays that measure proliferation and viability. BioMAP readouts are diverse and include cell surface receptors, cytokines, chemokines, matrix molecules and enzymes. In total, the Diversity PLUS panel contains 148 biomarker readouts that capture biological changes that occur within the physiological context of the particular BioMAP system. […]

[2] = white powder; cited from earlier work
[3] = test system: human primary cell-based systems; assay: BioMAP Diversity PLUS panel, phenotypic profiling; conditions: tested at 6.7 and/or 20 μM; 24 to 72 hours
Procedure: as §1, with “controls.” for “controls. Biomarker activities were annotated when 2 or more consecutive concentrations change in the same directions relative to vehicle controls, were outside of the significance envelope and had at least one concentration with an effect size>20% (log 10 ratio)>0.1.”
(§4) The Diversity PLUS panel allows test agent characterization in an unbiased way across a broad set of systems modeling various human disease states. These systems are designed to model complex human tissue and disease biology of the vasculature, skin, lung, and inflammatory tissues. Quantitative measurements of 148 biomarker activities across this broad panel, along with comparative analysis of biological activities from known bioactive agents, were used to predict and compare the efficacy and function of each selected compound at selected concentrations (6.7 and/or 20 μM).
(§5) BioMAP systems are constructed with one or more primary cell types from healthy human donors, with stimuli (such as cytokines or growth factors) added to capture relevant signaling networks that naturally occur in human tissue or pathological conditions. Vascular biology is modeled in both a Th1 (3C system) and a Th2 (4H system) inflammatory environment, as well as in a Th1 inflammatory state specific to arterial smooth muscle cells (CASM3C system). Additional systems recapitulate aspects of the systemic immune response including monocyte-driven Th1 inflammation (LPS system) or T cell stimulation (SAg system), chronic Th1 inflammation driven by macrophage activation (lMphg system) and the T cell-dependent activation of B cells that occurs in germinal centers (BT system). The BE3C system (Th1) and the BF4T system (Th2) represent airway inflammation of the lung, while the MyoF system models myofibroblast-lung tissue remodeling. Lastly, skin biology is addressed in the KF3CT system modeling Th1 cutaneous inflammation and the HDF3CGF system modeling wound healing.
(§6) Each test agent generates a signature BioMAP profile that is created from the changes in protein biomarker readouts within individual system environments. Biomarker readouts (7-17 per system) are selected for therapeutic and biological relevance, are predictive for disease outcomes or specific drug effects and are validated using agents with known mechanism of action (MoA). Each readout is measured quantitatively by immune-based methods that detect protein (e.g., ELISA) or functional assays that measure proliferation and viability. BioMAP readouts are diverse and include cell surface receptors, cytokines, chemokines, matrix molecules and enzymes. In total, the Diversity PLUS panel contains 148 biomarker readouts that capture biological changes that occur within the physiological context of the particular BioMAP system.
(§7) Activated BioMAP systems were incubated with each compound for 24 to 72 hours. Protein-based biomarkers from activated cell systems were measured and compared with non-treated control systems.

[4] = test system: BT: Peripheral blood mononuclear cells, B cells (α-IgM, TCR ligands); assay: BioMAP BT system; assay type: cell-based, human; conditions: BT system; at the compound's active concentration
Procedure: as §1
In the first system, human primary peripheral blood mononuclear cells and venular endothelial cells were stimulated with lipopolysaccharide (LPS) and incubated with the test agent, drug control, or vehicle control for 24 hours. In the second system, peripheral blood mononuclear cells and B cells were stimulated with α-IgM and T cell receptor ligands and incubated with the test agent, drug control, or vehicle control for 24 hours. In both systems, a negative, non-stimulated system was also included.
as §4, §5, §3

[5] = test system: BE3C: Bronchial epithelial cells (IL-1β, IFNγ, TNFα); assay: BioMAP BE3C system; assay type: cell-based, human; conditions: at the compound's active concentration
Excerpt: The Diversity PLUS panel allows test agent characterization in an unbiased way across a broad set of systems modeling various human disease states. These systems are designed to model complex human tissue and disease biology of the vasculature, skin, lung, and inflammatory tissues.
as §5
as §6, with “enzymes.” for “enzymes. In total, the Diversity PLUS panel contains 148 biomarker readouts that capture biological changes that occur within the physiological context of the particular BioMAP system.”
as §7

[6] = test system: HDF3CGF: Dermal fibroblasts; assay: BioMAP HDF3CGF system; assay type: cell-based, human; conditions: at the compound's active concentration
Excerpt: as §4, §5
as §6, with “system. Specific BioMAP activities have been correlated to in vivo biology, and multiparameter BioMAP profiles have been used to distinguish compounds based on MoA and target selectivity across diverse physiological systems.” for “system.”
as §7

[7] = test system: KF3CT: Keratinocytes, dermal fibroblasts; assay: BioMAP KF3CT system; assay type: cell-based, human; conditions: at the compound's active concentration
Excerpt: as §2
as §3, with “enzymes.” for “enzymes. In total, the Diversity PLUS panel contains 148 biomarker readouts that capture biological changes that occur within the physiological context of the particular BioMAP system.”

[8] = test system: MyoF: Lung fibroblasts (TGFβ, TNFα); assay: BioMAP MyoF system; assay type: cell-based, human; conditions: at the compound's active concentration
Excerpt: as §4, §5, §3, §7

For N[C@@H](CC(O)C(=O)O)C(=O)O (some centres unmarked) [4-hydroxyglutamate], the “T cell antiproliferative activity” value ([1]; higher concentrations (20 μM), 24 hours) is listed as “lost” and the “Stability of the pure powder” value [2] is listed as “stable at room temperature”.
With Nc1ncnc2c1ncn2[C@@H]1O[C@H](CSCC[C@H](N)C(=O)O)[C@@H](O)[C@H]1O [S-adenosylhomocysteine (SAH), S-adenosylhomocysteine] the Active concentrations [3] was 20 µM, the “T cell proliferation, log10 reduction vs nontreated controls” value ([1]; SAg system, at the compound's active concentration) was −0.21 log10 and the “Secreted IgG, log10 reduction vs nontreated controls” value [4] was −0.29 log10. For the same compound, the “CXCL11, log10 reduction vs nontreated controls” value [5] was −0.13 log10, the “HLA-DR, log10 reduction vs nontreated controls” value [5] was −0.13 log10 and the “IL-8, log10 reduction vs nontreated controls” value [5] was −0.13 log10. For the same compound, the “MMP-9, log10 reduction vs nontreated controls” value [5] was −0.24 log10, the “CXCL10, log10 reduction vs nontreated controls” value [6] was −0.19 log10 and the “CXCL11, log10 reduction vs nontreated controls” value [6] was −0.25 log10. The “Collagen III, log10 reduction vs nontreated controls” value [6] was −0.21 log10, the “Fibroblast proliferation, log10 reduction vs nontreated controls” value [6] was −1.10 log10 and the “M-CSF, log10 reduction vs nontreated controls” value [6] was −0.19 log10. For the same compound, the “MCP-1, log10 reduction vs nontreated controls” value [6] was −0.14 log10, the “TIMP-1, log10 reduction vs nontreated controls” value [6] was −0.14 log10 and the “VCAM-1, log10 reduction vs nontreated controls” value [6] was −0.17 log10. The “MMP-9, log10 reduction vs nontreated controls” value [7] was −0.10 log10, the “PAI-1, log10 reduction vs nontreated controls” value [7] was −0.28 log10 and the “Alpha-SM actin, log10 reduction vs nontreated controls” value [8] was −0.18 log10. The “Collagen I, log10 reduction vs nontreated controls” value [8] was −0.15 log10, the “Collagen III, log10 reduction vs nontreated controls” value [8] was −0.27 log10 and the “VCAM-1, log10 reduction vs nontreated controls” value [8] was −0.12 log10.

From US12427179B2, “Compositions and methods for diagnosis and treatment of neurodegenerative diseases” (EPITRACKER, INC., priority 2019, dated 2025)
